Data published in patent US20220016127A1, “COMPOSITIONS AND METHODS FOR INDUCING APPENDAGE AND LIMB REGENERATION” (priority 2020, published 2022).
Where “and” joins values, the source holds several entries; their conditions need not be identical. Equal values may be shown once.

Key:
Aurelia ephyra [1] = test: Arm regeneration induction in amputated Aurelia ephyrae; assay type: in vivo, Aurelia aurita; details: for effect on arm regeneration / regeneration frequency (in words): amputated ephyrae, factor added to artificial seawater upon amputation; for Percent regeneration, Average: average over experiments; for Effect size, Length of arm regenerates: Response Ratio treated vs control (Table 7); for Average effect size: Risk Ratio of regeneration frequency, across experiments (Table 4); for Average effect size / Odds Ratio: treated vs control; for Effect size, % ephyrae regenerating / Effect size, % ephyrae regenerating >1 arm / Effect size, % ephyrae regenerating rhopalia: Risk Ratio treated vs control (Table 7); for Odds Ratio: odds of regeneration, across experiments (Table 6)
Procedure: Amputation. Strobilated ephyrae were fed daily with rotifers (Brachionus plicatilis) until amputation time. 2-3 days old ephyrae were anesthetized in 400 μM menthol and amputated using a razor blade mounted on an x-acto knife handle. After amputation, ephyrae were let to recover in bubbler cones (FIG. 7). Regeneration was assessed at various times until 1-2 weeks after amputation, before onset of maturation to medusa.
Inducing regeneration. Experimental setup. 0.5-1 L sand settling cones were repurposed as jellyfish aquaria (Nalgene Imhoff; FIG. 7). Each cone was equipped with an airline from a Tetra Whisper air pump 100 to create a gentle vertical current (˜1 bubble/sec, see FIG. 30). The conical geometry eliminates stagnant spots, where the ephyrae could get stuck. In this “bubbler cone” setup, the ephyrae were continually in water current either in the upward air bubble-generated current or the downward self-generated current. 500 mL artificial seawater and 30 ephyrae were placed in each cone to avoid crowding and fouling. Artificial seawater was changed every week. Nutrients. In some embodiments, the food amount given here only serves as an initial estimate; percentage of regeneration can easily vary with lab culture condition (e.g., polyp and rotifer size, age, health), as well as subject to variation across polyps and strobilation batches (see Table 2A-Table 2C for a sense of the variation). Amputated ephyrae were fed daily with rotifers. The number of rotifers administered daily was estimated using a 6-well plate fitted with STEMgrid™ (the same principle as using a hemocytometer). In some embodiments, low food is ˜100-200 rotifers/ephyra, whereas high food is ˜400 rotifers/ephyra. Insulin. Human recombinant insulin was administered to the amputated ephyrae at 500 nM immediately after amputation (by mixing in the artificial seawater). If the experiment proceeds longer than a week, fresh insulin was added at the one-week time point. Hypoxia. Nitrogen or argon flow, instead of ambient air flow, was introduced via the airline into the bubbler cone immediately after amputation, and maintained throughout the duration of the experiment. The nitrogen flow was adjusted to achieve 50% reduction in the dissolved oxygen level.
Inhibiting or activating mTOR. 1 nM Sapanisertib (Selleck Chemicals S2811), 1 μM A769662 (Santa Cruz sc-203790), or 100 μM L-leucine (Sigma L1002, the cell-permeable methyl ester hydrochloride form) was administered into the artificial seawater right after amputation, and refreshed weekly. Statistical analysis. Percent regeneration was first normalized to the control (for sapanisertib and A769662, the HF+DMSO control; for leucine data the LF control), and then the student's t-test (two tailed, equal variances) in Excel was used to test the null hypothesis that the fold change in % regeneration is zero. Drosophila melanogaster
Amputation. Strobilated ephyrae were fed daily with rotifers (Brachionus plicatilis, Reed Mariculture) until amputation time. 2-3 days old ephyrae were anesthetized in 400 μM menthol and amputated using a razor blade mounted on an x-acto knife handle. After amputation, ephyrae were let to recover in bubbler cones (FIG. 21). Regeneration was assessed at various times for 1-2 weeks after amputation, before onset of maturation to medusa. Experiment in the original habitat. The polyp population in the study arose from parental polyps collected off the coast of Long Beach, Calif. (33° 46′04.2″N 118° 07′44.2″W, GPS: 33.7678376,−118.1289559). Ephyrae were amputated in location and immediately after submersed in the ocean. For submerging the amputated ephyrae in the ocean, a two-layered aquarium was custom-built. Ephyrae were placed in plastic canisters with a 7 cm diameter hole cut in the lid and covered with a 250 μm plastic screen. The canisters were then placed in a thick plastic tank fitted with a 500 μm plastic screen on top. […]

Drosophila limb = test: Tibia (hindlimb) regeneration in amputated adult Drosophila; assay type: in vivo, Drosophila melanogaster; details: adult flies, fed in food
Procedure: Amputation. Adult flies 2-7 days after eclosion were anesthetized with CO2. Amputations were performed under a dissection microscope using a spring scissors (Fine Science Tools, 91500-09) and superfine dissecting forceps (VWR, 82027-402). Recovering Drosophila were fed with standard fly food (control) or standard fly food supplemented with 2 mM L-leucine (Sigma L8000), 2 mM L-Glutamine (Sigma G3126), and 0.1 mg/mL insulin (MP Biomedicals 0219390080) or other molecular factors. To introduce molecular factors into fly food, standard fly food was microwaved in short pulses, such that the topmost layer of the food was liquified. Molecular factors in aqueous medium were then pipetted into this liquified layer. Food was allowed to re-set at 4° C. for at least 20 minutes. New food was prepared fresh every 2 days throughout the course of the 2-week experiment. Regeneration was assessed at 3, 6, 9 and 14 days post amputation.
Drosophila were amputated on the hindlimb, across the fourth segment of the leg, the tibia (FIG. 16A-FIG. 16C). The amputation removed the distal half to third of the tibia and all tarsal segments. […] Regeneration was assessed between 7-21 dpa as the presence of a regrown tibia with a reformed distal joint (FIG. 16E). […]

Aurelia ephyra [2] = test: Body size (growth) of amputated Aurelia ephyrae; assay type: in vivo, Aurelia aurita; details: Response Ratio across experiments (Table 8)
Procedure: Two-to-three-day-old ephyrae were anesthetized in 400 μM menthol and amputated using a razor blade mounted on an x-acto knife handle. Amputated ephyrae were let to recover in 1 L sand settling cones (Nalgene Imhoff, FIG. 21). In each experiment, ˜90 animals were amputated for each condition (e.g., 90 animals for control and 90 animals for treated). Because of the varying baseline across strobilation batches, each experiment was repeated across 2-5 strobilation batches (biological replicates). These sample sizes were chosen to obtain a 95% confidence level on the treatment effect (statistical analysis described below). Hundreds of experimental animals were first amputated, mixed together in a beaker, and then randomly allocated to the control or treatment groups. Regeneration was assessed at various times for 1-2 weeks after amputation, before onset of maturation to medusa. All data were included in the analysis.
For measurements of arm length and body size, the datasets are in the form of continuous variables. For such data, the commonly used effect size is the Response Ratio (R, EQUATION 3),
R evaluates the proportionate change that results from a treatment, and is the meaningful effect size to use when the outcome of a treatment is measured on a physical scale, e.g., length or area (as opposed to arbitrary scale, e.g., happiness level). […]

Aurelia ephyra [3] = test: Arm regeneration induction in amputated Aurelia ephyrae; assay type: in vivo, Aurelia aurita; details: low food (LF) background; single experiments; arm regeneration 1-2 weeks after amputation; insulin 500 nM, L-leucine 100 μM / 100 mM, nitrogen flow ~50% reduction in oxygen
[4] = high food (HF) background, single experiments, insulin 500 nM, 1 nM sapanisertib, 1 μM A769662 (controls HF + DMSO), nitrogen or argon flow ~50% reduction in oxygen

With `N#Cc1c(O)c2c(-c3ccc(-c4ccccc4O)cc3)csc2[nH]c1=O` [A769662, reference compound] the “effect on arm regeneration / regeneration frequency (in words)” value (Aurelia ephyra [1]) was “inhibited arm regeneration”, the “Percent regeneration, Average” value (Aurelia ephyra [1]; high food (HF) background) was 8.3% and the Percent regeneration (Aurelia ephyra [1]; [4]) was 9.8% and 7.0%.
In the case of `CC(C)C[C@H](N)C(=O)O` [Leucine, L-leucine], the “Effect size, Length of arm regenerates” value (Aurelia ephyra [1]) is reported as 1.7, the Average effect size (Aurelia ephyra [1]) is reported as 4.1 and the “Effect size, % ephyrae regenerating” value (Aurelia ephyra [1]) is reported as 4.1. The “Effect size, % ephyrae regenerating >1 arm” value (Aurelia ephyra [1]) was 6.0, the “Effect size, % ephyrae regenerating rhopalia” value (Aurelia ephyra [1]) was 6.1 and the “effect on arm regeneration / regeneration frequency (in words)” value (Aurelia ephyra [1]) was “induced arm regeneration”. The “Percent regeneration, Average” value (Aurelia ephyra [1]; low food (LF) background) was 23.0%, the “Odds Ratio” value (Aurelia ephyra [1]) was 5.8 and the “effect on tibia regrowth (in words)” value (Drosophila limb) was “can by itself effect tibia regrowth”. The “Ave. body diameter treatment/control” value (Aurelia ephyra [2]) was 1.1.
In the case of `CC(C)n1nc(-c2ccc3oc(N)nc3c2)c2c(N)ncnc21` [Sap, Sapanisertib, reference compound], the “Percent regeneration, Average” value (Aurelia ephyra [1]; high food (HF) background) is reported as 11.5%.
With `[Ar]` [argon] the “effect on arm regeneration / regeneration frequency (in words)” value (Aurelia ephyra [1]) was “dramatically induced regeneration” and the Percent regeneration (Aurelia ephyra [1]; [4]) was 72.5%.
For `N#N` [nitrogen], the Percent regeneration (Aurelia ephyra [3]) was 32.5%, the Percent regeneration (Aurelia ephyra [1]; LF* background, single experiment, nitrogen flow) was 28.4% and the “Percent regeneration, Average” value (Aurelia ephyra [1]; high food (HF) background) was 69.3%. For the same molecule, the Percent regeneration (Aurelia ephyra [1]; [4]) was 82.1% and 56.9% and the “Percent regeneration, Average” value (Aurelia ephyra [1]; low food (LF) background) was 30.6%.
“Insulin: human recombinant insulin (Sigma I0908), 500 nM in artificial seawater” was tested, and the Percent regeneration (Aurelia ephyra [3]) was 25%, the “Effect size, Length of arm regenerates” value (Aurelia ephyra [1]) was 1.2 and the Average effect size (Aurelia ephyra [1]) was 2.4. For the same molecule, the “Effect size, % ephyrae regenerating” value (Aurelia ephyra [1]) was 2.4, the “Effect size, % ephyrae regenerating >1 arm” value (Aurelia ephyra [1]) was 1.9 and the “Effect size, % ephyrae regenerating rhopalia” value (Aurelia ephyra [1]) was 1.3. The Percent regeneration (Aurelia ephyra [1]; [4]) was 36.4%, the “Odds Ratio” value (Aurelia ephyra [1]) was 5.0 and the “Ave. body diameter treatment/control” value (Aurelia ephyra [2]) was 1.4.
With “Tgfb: protein tested in the screen (hTGF-β1, Peprotech 100-21)” the “effect on arm regeneration / regeneration frequency (in words)” value (Aurelia ephyra [1]) was “no effect”.
